{"source": "ChEMBL document CHEMBL1201862", "about": "“PubChem BioAssay data set” (2004)", "key": {"[1]": {"target": "1-phosphatidylinositol 4,5-bisphosphate phosphodiesterase beta-3 (Homo sapiens, UniProt Q01970)", "sequence (Q01970 whole entry)": "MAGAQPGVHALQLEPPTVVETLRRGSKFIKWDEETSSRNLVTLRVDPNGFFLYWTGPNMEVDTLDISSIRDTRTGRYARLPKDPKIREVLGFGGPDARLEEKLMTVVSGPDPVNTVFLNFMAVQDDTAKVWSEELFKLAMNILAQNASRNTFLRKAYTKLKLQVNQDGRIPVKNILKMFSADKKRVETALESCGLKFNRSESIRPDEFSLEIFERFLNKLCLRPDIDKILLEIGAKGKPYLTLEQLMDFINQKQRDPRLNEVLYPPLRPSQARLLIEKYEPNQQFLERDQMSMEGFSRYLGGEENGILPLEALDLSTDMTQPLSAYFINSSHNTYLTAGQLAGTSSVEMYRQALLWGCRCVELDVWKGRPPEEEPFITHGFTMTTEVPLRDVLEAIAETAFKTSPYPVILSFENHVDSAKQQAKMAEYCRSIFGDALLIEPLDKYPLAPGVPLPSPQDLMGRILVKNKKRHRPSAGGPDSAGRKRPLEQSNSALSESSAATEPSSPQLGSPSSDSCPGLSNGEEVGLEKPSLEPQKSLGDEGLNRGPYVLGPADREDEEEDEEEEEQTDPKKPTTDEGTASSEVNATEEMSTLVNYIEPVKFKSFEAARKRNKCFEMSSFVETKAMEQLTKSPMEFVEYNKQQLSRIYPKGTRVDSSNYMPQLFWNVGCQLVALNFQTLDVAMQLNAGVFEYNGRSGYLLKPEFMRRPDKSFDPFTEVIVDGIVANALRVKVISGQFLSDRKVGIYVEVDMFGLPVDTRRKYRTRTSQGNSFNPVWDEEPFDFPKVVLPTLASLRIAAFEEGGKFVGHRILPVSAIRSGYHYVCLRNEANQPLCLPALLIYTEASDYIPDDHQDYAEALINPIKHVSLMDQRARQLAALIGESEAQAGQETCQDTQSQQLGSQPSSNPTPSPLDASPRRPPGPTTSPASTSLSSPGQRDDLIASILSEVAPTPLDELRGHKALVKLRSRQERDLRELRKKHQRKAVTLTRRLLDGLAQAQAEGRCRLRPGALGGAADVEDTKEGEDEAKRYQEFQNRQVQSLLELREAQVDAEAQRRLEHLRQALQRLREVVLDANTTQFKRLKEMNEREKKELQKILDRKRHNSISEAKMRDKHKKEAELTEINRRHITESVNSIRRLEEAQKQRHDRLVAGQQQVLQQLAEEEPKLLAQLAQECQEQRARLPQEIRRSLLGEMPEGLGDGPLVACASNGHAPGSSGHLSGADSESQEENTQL", "test": "Fluorescence-based biochemical high throughput dose response assay to identify inhibitors of phospholipase C isozymes (PLC-B3)."}, "[2]": {"target": "T1, Sphingosine 1-phosphate receptor 4 (Homo sapiens, UniProt O95977)", "T1 sequence (O95977 whole entry)": "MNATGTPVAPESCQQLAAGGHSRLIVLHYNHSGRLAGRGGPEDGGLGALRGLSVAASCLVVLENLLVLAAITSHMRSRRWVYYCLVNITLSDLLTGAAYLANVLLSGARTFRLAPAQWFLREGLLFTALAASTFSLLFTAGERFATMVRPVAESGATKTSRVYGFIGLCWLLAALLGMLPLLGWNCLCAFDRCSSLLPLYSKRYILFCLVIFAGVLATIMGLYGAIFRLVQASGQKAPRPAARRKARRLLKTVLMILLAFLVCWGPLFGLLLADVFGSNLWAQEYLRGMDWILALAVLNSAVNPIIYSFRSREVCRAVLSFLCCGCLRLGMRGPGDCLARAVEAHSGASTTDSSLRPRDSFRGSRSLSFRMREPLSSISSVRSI", "test": "Fluorescence dose response cell-based high throughput screening assay for antagonists of the Sphingosine 1-Phosphate Receptor 4 (S1P4). [Related pubchem assays: 1524 (Confirmation in triplicates.), 1510 (Primary screen.)]", "type": "functional"}, "[3]": {"target": "Peroxisome proliferator-activated receptor gamma/Nuclear receptor corepressor 2 (Homo sapiens, UniProt P37231+Q9Y618)", "type": "functional"}, "[4]": {"target": "Sphingosine 1-phosphate receptor 1 (Homo sapiens, UniProt P21453)", "sequence (P21453 whole entry)": "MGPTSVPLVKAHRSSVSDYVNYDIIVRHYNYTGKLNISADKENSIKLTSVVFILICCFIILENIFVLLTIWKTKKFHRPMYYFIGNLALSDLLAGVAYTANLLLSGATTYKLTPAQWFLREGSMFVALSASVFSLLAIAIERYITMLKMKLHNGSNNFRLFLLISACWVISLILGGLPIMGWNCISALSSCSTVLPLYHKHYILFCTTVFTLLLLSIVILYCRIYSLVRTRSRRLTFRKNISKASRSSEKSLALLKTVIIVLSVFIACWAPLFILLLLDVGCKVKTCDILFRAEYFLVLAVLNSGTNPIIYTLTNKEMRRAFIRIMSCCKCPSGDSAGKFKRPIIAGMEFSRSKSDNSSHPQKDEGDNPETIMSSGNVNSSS", "type": "functional"}, "[5]": {"test": "CEM21 lymphoblast cell cytotoxicity, dose response, cytotoxicity control for viral fusion inhibitor project, CellTiter-Glo luminescence, cherry-picked (AID 652042);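 also: potency for signal decrease meaning cytotoxicity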", "type": "functional, cell-based"}, "Cysteine protease ATG4B": {"target": "T2, Cysteine protease ATG4B (Homo sapiens, UniProt Q9Y4P1)", "T2 sequence (Q9Y4P1 whole entry)": "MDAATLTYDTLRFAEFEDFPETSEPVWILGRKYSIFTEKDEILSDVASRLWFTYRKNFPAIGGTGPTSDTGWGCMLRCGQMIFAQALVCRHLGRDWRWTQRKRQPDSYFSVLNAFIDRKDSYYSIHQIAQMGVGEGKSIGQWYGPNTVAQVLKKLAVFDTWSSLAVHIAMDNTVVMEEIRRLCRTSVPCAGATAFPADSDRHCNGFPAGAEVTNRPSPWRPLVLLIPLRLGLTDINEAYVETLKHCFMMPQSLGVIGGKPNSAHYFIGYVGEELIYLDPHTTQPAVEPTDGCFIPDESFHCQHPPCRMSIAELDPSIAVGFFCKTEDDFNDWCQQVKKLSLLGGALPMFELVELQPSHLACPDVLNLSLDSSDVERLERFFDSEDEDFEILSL", "type": "functional"}, "Beta Lactamase": {"target": "Beta Lactamase (Pseudomonas aeruginosa, UniProt Q932Y6)", "sequence (Q932Y6 whole entry)": "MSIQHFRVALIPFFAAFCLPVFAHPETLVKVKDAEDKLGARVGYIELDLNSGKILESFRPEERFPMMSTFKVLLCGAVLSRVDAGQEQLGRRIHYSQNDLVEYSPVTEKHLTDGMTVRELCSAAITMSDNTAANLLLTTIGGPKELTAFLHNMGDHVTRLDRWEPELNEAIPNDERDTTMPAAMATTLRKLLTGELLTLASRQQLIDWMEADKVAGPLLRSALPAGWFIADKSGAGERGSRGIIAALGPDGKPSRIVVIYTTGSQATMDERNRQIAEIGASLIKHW", "test": "beta-lactamase reporter inhibitor potency, dose response, artefact control for TLR9-MyD88 binding inhibitor project, BLA reporter cells, FRET fluorescence (AID 588341);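 also: cell based assay in CHO-K1 cells stably expressing beta-lactamase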", "type": "cell-based"}, "Beta-galactosidase": {"target": "Beta-galactosidase (Escherichia coli, UniProt Q8VNN2)", "sequence (Q8VNN2 whole entry)": "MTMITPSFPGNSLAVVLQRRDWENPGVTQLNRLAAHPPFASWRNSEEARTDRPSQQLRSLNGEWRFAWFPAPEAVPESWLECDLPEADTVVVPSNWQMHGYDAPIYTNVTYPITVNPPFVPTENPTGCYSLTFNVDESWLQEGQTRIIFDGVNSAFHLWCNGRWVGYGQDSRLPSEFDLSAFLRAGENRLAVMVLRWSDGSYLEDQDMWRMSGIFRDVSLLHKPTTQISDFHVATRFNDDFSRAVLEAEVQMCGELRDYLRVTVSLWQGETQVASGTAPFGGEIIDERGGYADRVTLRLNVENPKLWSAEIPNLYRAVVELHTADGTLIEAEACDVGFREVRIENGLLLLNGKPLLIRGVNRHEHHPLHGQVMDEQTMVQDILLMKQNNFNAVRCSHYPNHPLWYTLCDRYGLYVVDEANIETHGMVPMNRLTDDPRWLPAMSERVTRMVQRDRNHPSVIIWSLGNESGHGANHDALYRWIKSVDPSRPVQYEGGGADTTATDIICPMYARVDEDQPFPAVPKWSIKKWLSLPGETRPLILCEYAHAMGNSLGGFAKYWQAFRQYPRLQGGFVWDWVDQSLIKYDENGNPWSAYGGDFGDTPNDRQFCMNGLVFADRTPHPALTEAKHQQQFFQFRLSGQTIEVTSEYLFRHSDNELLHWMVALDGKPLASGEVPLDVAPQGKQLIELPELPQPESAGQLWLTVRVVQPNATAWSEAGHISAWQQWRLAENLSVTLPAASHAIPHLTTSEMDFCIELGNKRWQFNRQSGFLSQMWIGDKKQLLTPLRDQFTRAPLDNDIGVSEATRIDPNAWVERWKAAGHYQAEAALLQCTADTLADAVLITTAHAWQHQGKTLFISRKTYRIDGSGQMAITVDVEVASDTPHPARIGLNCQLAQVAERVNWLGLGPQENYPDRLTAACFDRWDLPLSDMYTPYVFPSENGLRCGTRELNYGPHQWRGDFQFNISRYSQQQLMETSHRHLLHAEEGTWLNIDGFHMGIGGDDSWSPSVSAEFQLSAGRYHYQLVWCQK", "type": "functional"}, "SUMO-activating enzyme": {"target": "SUMO-activating enzyme (Homo sapiens, UniProt Q9UBT2)", "sequence (Q9UBE0 whole entry)": "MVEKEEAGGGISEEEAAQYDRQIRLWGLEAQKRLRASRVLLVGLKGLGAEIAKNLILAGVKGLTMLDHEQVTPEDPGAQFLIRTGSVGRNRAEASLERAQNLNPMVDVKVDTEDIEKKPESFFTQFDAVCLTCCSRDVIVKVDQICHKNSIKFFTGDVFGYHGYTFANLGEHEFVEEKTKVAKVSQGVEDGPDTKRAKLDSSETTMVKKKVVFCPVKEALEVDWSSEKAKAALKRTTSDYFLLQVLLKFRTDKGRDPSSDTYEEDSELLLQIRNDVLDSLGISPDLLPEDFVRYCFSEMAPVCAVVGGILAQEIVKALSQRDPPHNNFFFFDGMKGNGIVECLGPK", "sequence (Q9UBT2 whole entry)": "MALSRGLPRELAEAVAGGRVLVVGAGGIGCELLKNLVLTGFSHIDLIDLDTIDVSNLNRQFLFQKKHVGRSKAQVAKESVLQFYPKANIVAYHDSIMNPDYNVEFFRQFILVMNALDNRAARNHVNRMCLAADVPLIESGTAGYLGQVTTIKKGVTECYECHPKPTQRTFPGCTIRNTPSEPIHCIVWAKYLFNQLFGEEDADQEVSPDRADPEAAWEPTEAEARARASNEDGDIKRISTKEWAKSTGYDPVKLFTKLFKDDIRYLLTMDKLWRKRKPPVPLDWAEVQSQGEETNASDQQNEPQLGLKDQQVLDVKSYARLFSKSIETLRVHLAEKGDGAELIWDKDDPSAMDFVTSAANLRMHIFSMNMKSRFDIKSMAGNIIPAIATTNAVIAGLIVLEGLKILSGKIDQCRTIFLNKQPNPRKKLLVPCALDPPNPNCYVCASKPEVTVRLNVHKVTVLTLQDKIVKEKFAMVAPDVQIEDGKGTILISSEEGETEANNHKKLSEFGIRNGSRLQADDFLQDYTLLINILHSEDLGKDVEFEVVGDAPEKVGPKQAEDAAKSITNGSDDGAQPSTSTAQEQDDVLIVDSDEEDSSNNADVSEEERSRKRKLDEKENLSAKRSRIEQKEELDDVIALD", "test": "inhibitors of in vitro SUMOylation cascade, primary screen, biochemical, HTRF, uHTS (AID 2006)", "type": "protein-complex assay"}, "Caspase-6": {"target": "T3, Caspase-6 (Homo sapiens, UniProt P55212)", "T3 sequence (P55212 whole entry)": "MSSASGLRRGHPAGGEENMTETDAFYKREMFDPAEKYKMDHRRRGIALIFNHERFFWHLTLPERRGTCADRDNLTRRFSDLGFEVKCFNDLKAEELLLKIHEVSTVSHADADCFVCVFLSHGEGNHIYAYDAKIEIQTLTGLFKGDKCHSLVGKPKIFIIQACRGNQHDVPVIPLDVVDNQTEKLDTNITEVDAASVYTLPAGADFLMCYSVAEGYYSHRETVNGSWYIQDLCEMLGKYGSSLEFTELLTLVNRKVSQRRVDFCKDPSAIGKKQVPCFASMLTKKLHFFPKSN", "test": "human caspase-6 inhibitors, dose response, biochemical, VEID-R110 fluorescence, cherry-pick (AID 720632)"}, "[6]": {"test": "inhibitors of firefly luciferase expression or activity, dose response, H4 neuroglioma cells, luminescence (AID 1990)", "type": "functional, cell-based"}, "[7]": {"target": "T4, Sentrin-specific protease 8 (Homo sapiens, UniProt Q96LD8)", "T4 sequence (Q96LD8 whole entry)": "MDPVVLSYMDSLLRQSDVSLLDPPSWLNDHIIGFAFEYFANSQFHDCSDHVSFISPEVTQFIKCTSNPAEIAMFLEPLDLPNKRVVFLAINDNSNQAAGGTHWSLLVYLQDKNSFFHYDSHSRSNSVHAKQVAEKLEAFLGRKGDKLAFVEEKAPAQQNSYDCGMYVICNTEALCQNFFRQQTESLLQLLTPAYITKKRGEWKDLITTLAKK", "type": "functional"}, "Hexokinase HKDC1": {"target": "T5, Hexokinase HKDC1 (Homo sapiens, UniProt Q2TB90)", "T5 sequence (Q2TB90 whole entry)": "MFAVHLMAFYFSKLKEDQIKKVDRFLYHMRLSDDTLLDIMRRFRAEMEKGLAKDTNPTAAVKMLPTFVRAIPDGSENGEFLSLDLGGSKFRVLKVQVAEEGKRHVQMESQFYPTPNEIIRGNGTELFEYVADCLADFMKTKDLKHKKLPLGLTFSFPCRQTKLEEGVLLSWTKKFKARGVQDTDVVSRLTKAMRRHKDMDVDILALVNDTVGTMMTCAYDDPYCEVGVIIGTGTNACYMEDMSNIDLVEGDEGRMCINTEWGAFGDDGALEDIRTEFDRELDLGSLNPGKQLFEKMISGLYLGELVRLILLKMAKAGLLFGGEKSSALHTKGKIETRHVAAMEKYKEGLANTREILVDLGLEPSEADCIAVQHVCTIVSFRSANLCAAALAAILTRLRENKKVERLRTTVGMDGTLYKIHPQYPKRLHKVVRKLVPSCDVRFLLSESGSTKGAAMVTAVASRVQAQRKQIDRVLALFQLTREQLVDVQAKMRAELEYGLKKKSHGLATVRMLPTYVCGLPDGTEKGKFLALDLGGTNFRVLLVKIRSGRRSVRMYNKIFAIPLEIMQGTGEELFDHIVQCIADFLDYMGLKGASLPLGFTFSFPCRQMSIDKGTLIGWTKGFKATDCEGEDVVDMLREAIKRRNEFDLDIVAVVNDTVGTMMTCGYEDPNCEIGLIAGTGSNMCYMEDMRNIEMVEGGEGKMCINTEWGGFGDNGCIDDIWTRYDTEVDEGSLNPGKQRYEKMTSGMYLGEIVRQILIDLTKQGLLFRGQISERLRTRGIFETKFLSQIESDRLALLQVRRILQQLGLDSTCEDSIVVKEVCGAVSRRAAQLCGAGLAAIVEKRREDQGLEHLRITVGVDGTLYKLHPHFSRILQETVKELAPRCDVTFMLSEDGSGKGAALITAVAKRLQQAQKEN", "test": "HKDC1 hexokinase inhibitors, dose response, biochemical, W721R variant (AID 504729)", "type": "functional"}}, "note": "The source made the active and inactive calls."}
{"smiles": "O=C1C(=O)c2ccccc2-c2ccccc21", "note": "[9,10-PHENANTHRENEQUINONE]", "values": [{"measurement": "IC50", "setting": "[1]", "value": "> 122 µM (inactive)"}, {"measurement": "IC50", "setting": "[2]", "value": "2.03 µM (active)"}, {"measurement": "IC50", "setting": "[3]", "value": "1.84 µM (active)"}, {"measurement": "IC50", "setting": "[4]", "value": "5.02 µM (active)"}, {"measurement": "AC50", "setting": "[5]", "value": "1.93 µM (active)"}, {"measurement": "IC50", "setting": "Cysteine protease ATG4B", "value": "1.25 µM (active)"}]}
{"smiles": "CCC(=O)OCCNc1cc(Sc2nccn2C)c2nonc2c1[N+](=O)[O-]", "values": [{"measurement": "IC50", "setting": "Beta Lactamase", "value": "8.31 µM (active)"}, {"measurement": "EC50", "setting": "Beta-galactosidase", "value": "> 31.5 µM (inactive)"}]}
{"smiles": "CCCCn1c(NC(=O)c2ccccc2Cl)c(C#N)c2nc3ccccc3nc21", "values": [{"measurement": "IC50", "setting": "SUMO-activating enzyme", "value": "2.82 µM (active)"}, {"measurement": "AC50", "setting": "Caspase-6", "value": "14.1 µM (active)"}]}
{"smiles": "O=C1c2cc(F)ccc2-n2c1nc1ccccc1c2=O", "values": [{"measurement": "EC50", "setting": "[6]", "value": "10 µM (inconclusive)"}, {"measurement": "IC50", "setting": "[7]", "value": "0.962 µM (active)"}]}
{"smiles": "CCOC(=O)C1=C(c2ccc(OC)cc2)C(=O)c2ccccc2C1=O", "values": [{"measurement": "IC50", "setting": "Hexokinase HKDC1", "value": "2.32 µM (active)"}]}
